Where “and” joins values, the source holds several entries; their conditions need not be identical. Equal values may be shown once.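 Interpolation was linear, between the two tested concentrations surrounding the appropriate level; five concentrations were tested over 48 hours in 96-well plates. Abbreviation: GI50, concentration required for 50% inhibition of growth. Definition used: TGI = concentration required for complete inhibition of growth.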
What follows are compounds tested on NCI/ADR-RES ovarian (assay: DTP human tumour cell line panel, 48 h).
Compound O=C1OCC2=C1C(c1cccc(Br)c1)c1cc3c(cc1N2CCO)OCCO3 (centres undefined) has a GI50 of 63.5 nM and a TGI of 0.273 µM.
COc1cc(-c2nc3sccn3c2-c2ccnc(NCCNS(=O)(=O)c3ccc(F)cc3)n2)ccc1F was tested, and the GI50 was 1940 nM and the TGI was > 100 µM.
COc1cc(-c2nn(-c3cccc(NC(=O)c4ccccc4)c3)cc2-c2ccncc2)ccc1Cl was tested, and the GI50 was 360 nM and the TGI was > 100 µM.
In the case of Cc1cc(Nc2ccc(C)c(Cl)c2)n2nc(C(F)(F)F)nc2n1, the GI50 is reported as 27100 nM and the TGI is reported as > 100 µM.
In the case of COc1ccc(Cn2c(Br)c3c(c2Br)-c2nc(N)sc2CC3)cc1, the GI50 is reported as 4850 nM and the TGI is reported as 53.5 µM.
For O=C1CSC(=S)N1/N=C/c1ccc(Cl)c([N+](=O)[O-])c1, the TGI was 52.5 µM.
In the case of CCOc1ccc(NC2=CC(=O)C(=O)c3ccccc32)cc1, the TGI is reported as 11.3 µM.
With COc1cc2c(cc1OC)-c1cc(OC)c(OC)cc1C(CN(C)C)C2 (centres undefined) the GI50 was > 10000 nM and the TGI was > 10 µM.
O=C1c2ccccc2C(=O)c2c(/C=C\N3CCCCC3)ccnc21 was tested, and the TGI was > 95.4 µM.
C=C1C[C@H](O)[C@H](Br)C(C)(C)[C@@]12CCC(C)=C(Cl)C2 gave a GI50 of 247 nM and a TGI of 11.2 µM.
In the case of O=C(NC1CCCCC1)NS(=O)(=O)c1ccc(N2N=C3c4ccccc4CC3C2c2ccc(Cl)cc2)cc1 (centres undefined), the GI50 is reported as 20600 nM and the TGI is reported as 69.6 µM.
With c1ccc(-c2n(Cc3ccc4ccccc4n3)cc[n+]2Cc2ccc3ccccc3c2)cc1 the GI50 was 19500 nM and the TGI was 66.8 µM.
For C[C@@H]1CC[C@H]2C(C)(C)[C@H]3C[C@@]12CC[C@@]3(C)O, the TGI was > 100 µM.
CC(C)(C)[Si](C)(C)OC1[C@@H](O[Si](C)(C)C(C)(C)C)[C@@H](CNC(=O)NC(=O)C(F)(F)F)O[C@H]1n1cnc2c(NC(=O)Nc3ccccc3)ncnc21 (some centres undefined) gave a GI50 of 7560 nM and a TGI of 14.7 µM.
With CCOC(=O)n1cc(C2=C(c3ccc(OC)c(OC)c3)COC2=O)c2ccccc21 the GI50 was 41.5 nM and the TGI was > 100 µM.
In the case of CC(=C(c1ccc(OCCN2CCCCC2)cc1)c1ccc(OCCN2CCCCC2)cc1)c1ccc(Cl)cc1, the GI50 is reported as 446 nM and the TGI is reported as 0.858 µM.
For C=CC(=O)Nc1cc(Nc2nccc(-c3cn(C)c4ccccc34)n2)c(OC)cc1N(C)CCN(C)C, the GI50 was 1850 nM and 1450 nM and the TGI was 9.57 µM and 8.18 µM.
For C=C1C(=O)O[C@H]2[C@H]1CC/C(CNC(=O)c1cc3ccccc3[nH]1)=C\CC[C@@]1(C)O[C@@H]21, the GI50 was 3080 nM and the TGI was 12.3 µM.
For Cc1cc2c(cc1C)[n+](=O)c(C(=O)c1ccccc1)c(C(F)F)n2[O-], the GI50 was 36300 nM and the TGI was > 100 µM.
Compound COc1cc2c(cc1OC)C(Cl)C(c1ccc(F)cc1)=C2Cl (centres undefined) has a TGI of 34.5 µM.
With CN(C)c1ccc(/C=N/NC(=S)Nc2ccccc2)cc1 the TGI was > 100 µM.
With COc1ccc2ncnc(Nc3ccc(OCc4ccccc4)cc3)c2c1 the GI50 was 7560 nM and the TGI was > 25 µM.
O=C1c2c(F)c(F)c(F)c(F)c2C(=O)N1c1ccc(F)cc1F was tested, and the GI50 was 7550 nM and the TGI was 30.5 µM.
CC(C)[C@@H]1NC(=O)[C@]2(C)CSC(=N2)c2ccnc(c2)CNC(=O)C[C@@H](/C=C/CCS)OC1=O was tested, and the GI50 was 2460 nM and the TGI was > 61.6 µM.
OC(c1cc(C(F)(F)F)nc2c(C(F)(F)F)cccc12)C1CCCCN1 (centres undefined) gave a GI50 of 2310 nM and a TGI of 5.95 µM.
COC(=O)/C=C/c1cc(OC(C)=O)c2c(c1)[C@@H](C(=O)OC)[C@H](c1ccc(OC(C)=O)c(OC(C)=O)c1)O2 was tested, and the GI50 was 42.3 nM and the TGI was 1.93 µM.

These compounds were tested on SN12C renal (assay: DTP human tumour cell line panel, 48 h).
For O=C1OCC2=C1C(c1cccc(Br)c1)c1cc3c(cc1N2CCO)OCCO3 (centres undefined), the GI50 was 188 nM and the TGI was > 27.1 µM.
COc1cc(-c2nc3sccn3c2-c2ccnc(NCCNS(=O)(=O)c3ccc(F)cc3)n2)ccc1F was tested, and the GI50 was 1890 nM and the TGI was > 100 µM.
In the case of COc1cc(-c2nn(-c3cccc(NC(=O)c4ccccc4)c3)cc2-c2ccncc2)ccc1Cl, the GI50 is reported as 1450 nM and the TGI is reported as > 100 µM.
Work on Cc1cc(Nc2ccc(C)c(Cl)c2)n2nc(C(F)(F)F)nc2n1 yielded a GI50 of 18800 nM and a TGI of 52.9 µM.
In the case of COc1ccc(Cn2c(Br)c3c(c2Br)-c2nc(N)sc2CC3)cc1, the GI50 is reported as 5470 nM and the TGI is reported as 21 µM.
Compound O=C1CSC(=S)N1/N=C/c1ccc(Cl)c([N+](=O)[O-])c1 has a TGI of 56.3 µM.
Compound CCOc1ccc(NC2=CC(=O)C(=O)c3ccccc32)cc1 has a TGI of 3.31 µM.
For COc1cc2c(cc1OC)-c1cc(OC)c(OC)cc1C(CN(C)C)C2 (centres undefined), the GI50 was > 10000 nM and the TGI was > 10 µM.
Work on O=C1c2ccccc2C(=O)c2c(/C=C\N3CCCCC3)ccnc21 yielded a TGI of 4.14 µM.
C=C1C[C@H](O)[C@H](Br)C(C)(C)[C@@]12CCC(C)=C(Cl)C2 was tested, and the GI50 was 416 nM and the TGI was 6.61 µM.
Work on O=C(NC1CCCCC1)NS(=O)(=O)c1ccc(N2N=C3c4ccccc4CC3C2c2ccc(Cl)cc2)cc1 (centres undefined) yielded a GI50 of 16800 nM and a TGI of 32.6 µM.
In the case of c1ccc(-c2n(Cc3ccc4ccccc4n3)cc[n+]2Cc2ccc3ccccc3c2)cc1, the GI50 is reported as 1440 nM and the TGI is reported as 4.36 µM.
C[C@@H]1CC[C@H]2C(C)(C)[C@H]3C[C@@]12CC[C@@]3(C)O gave a TGI of 60.5 µM.
Compound CC(C)(C)[Si](C)(C)OC1[C@@H](O[Si](C)(C)C(C)(C)C)[C@@H](CNC(=O)NC(=O)C(F)(F)F)O[C@H]1n1cnc2c(NC(=O)Nc3ccccc3)ncnc21 (some centres undefined) has a GI50 of 1960 nM and a TGI of 8.22 µM.
CCOC(=O)n1cc(C2=C(c3ccc(OC)c(OC)c3)COC2=O)c2ccccc21 was tested, and the GI50 was 68.1 nM and the TGI was > 100 µM.
CC(=C(c1ccc(OCCN2CCCCC2)cc1)c1ccc(OCCN2CCCCC2)cc1)c1ccc(Cl)cc1 was tested, and the GI50 was 414 nM and the TGI was 0.785 µM.
With C=CC(=O)Nc1cc(Nc2nccc(-c3cn(C)c4ccccc34)n2)c(OC)cc1N(C)CCN(C)C the GI50 was 2200 nM and 1200 nM and the TGI was 8.58 µM and 4.36 µM.
Compound C=C1C(=O)O[C@H]2[C@H]1CC/C(CNC(=O)c1cc3ccccc3[nH]1)=C\CC[C@@]1(C)O[C@@H]21 has a GI50 of 1790 nM and a TGI of 4.85 µM.
Cc1cc2c(cc1C)[n+](=O)c(C(=O)c1ccccc1)c(C(F)F)n2[O-] was tested, and the GI50 was 25700 nM and the TGI was > 100 µM.
In the case of COc1cc2c(cc1OC)C(Cl)C(c1ccc(F)cc1)=C2Cl (centres undefined), the TGI is reported as 27 µM.
CN(C)c1ccc(/C=N/NC(=S)Nc2ccccc2)cc1 was tested, and the TGI was > 100 µM.
With COc1ccc2ncnc(Nc3ccc(OCc4ccccc4)cc3)c2c1 the GI50 was 9140 nM and the TGI was > 25 µM.
In the case of O=C1c2c(F)c(F)c(F)c(F)c2C(=O)N1c1ccc(F)cc1F, the GI50 is reported as 2950 nM and the TGI is reported as 10.1 µM.
In the case of CC(C)[C@@H]1NC(=O)[C@]2(C)CSC(=N2)c2ccnc(c2)CNC(=O)C[C@@H](/C=C/CCS)OC1=O, the GI50 is reported as 711 nM and the TGI is reported as > 100 µM.
OC(c1cc(C(F)(F)F)nc2c(C(F)(F)F)cccc12)C1CCCCN1 (centres undefined) was tested, and the GI50 was 1780 nM and the TGI was 3.71 µM.
COC(=O)/C=C/c1cc(OC(C)=O)c2c(c1)[C@@H](C(=O)OC)[C@H](c1ccc(OC(C)=O)c(OC(C)=O)c1)O2 was tested, and the GI50 was 121 nM and the TGI was 99.7 µM.

What follows are compounds tested on SK-MEL-2 melanoma (assay: DTP human tumour cell line panel, 48 h).
In the case of O=C1OCC2=C1C(c1cccc(Br)c1)c1cc3c(cc1N2CCO)OCCO3 (centres undefined), the GI50 is reported as 42.6 nM and the TGI is reported as 1.29 µM.
Work on COc1cc(-c2nc3sccn3c2-c2ccnc(NCCNS(=O)(=O)c3ccc(F)cc3)n2)ccc1F yielded a GI50 of 2240 nM and a TGI of 7.27 µM.
COc1cc(-c2nn(-c3cccc(NC(=O)c4ccccc4)c3)cc2-c2ccncc2)ccc1Cl showed a GI50 of 326 nM and a TGI of 2.1 µM.
Cc1cc(Nc2ccc(C)c(Cl)c2)n2nc(C(F)(F)F)nc2n1 was tested, and the GI50 was 22900 nM and the TGI was 55.4 µM.
For COc1ccc(Cn2c(Br)c3c(c2Br)-c2nc(N)sc2CC3)cc1, the GI50 was 5560 nM and the TGI was 19.9 µM.
In the case of O=C1CSC(=S)N1/N=C/c1ccc(Cl)c([N+](=O)[O-])c1, the TGI is reported as 92.7 µM.
In the case of CCOc1ccc(NC2=CC(=O)C(=O)c3ccccc32)cc1, the TGI is reported as 16.2 µM.
With COc1cc2c(cc1OC)-c1cc(OC)c(OC)cc1C(CN(C)C)C2 (centres undefined) the GI50 was > 10000 nM and the TGI was > 10 µM.
For O=C1c2ccccc2C(=O)c2c(/C=C\N3CCCCC3)ccnc21, the TGI was 14 µM.
C=C1C[C@H](O)[C@H](Br)C(C)(C)[C@@]12CCC(C)=C(Cl)C2 gave a GI50 of 422 nM and a TGI of 2.61 µM.
Work on O=C(NC1CCCCC1)NS(=O)(=O)c1ccc(N2N=C3c4ccccc4CC3C2c2ccc(Cl)cc2)cc1 (centres undefined) yielded a GI50 of 24400 nM and a TGI of 80.4 µM.
Work on c1ccc(-c2n(Cc3ccc4ccccc4n3)cc[n+]2Cc2ccc3ccccc3c2)cc1 yielded a GI50 of 1200 nM and a TGI of 3.12 µM.
C[C@@H]1CC[C@H]2C(C)(C)[C@H]3C[C@@]12CC[C@@]3(C)O was tested, and the TGI was > 100 µM.

Reference: PubChem BioAssay (NCI)
